The target of series [1] is T1, Mep2 (ScMep2) (Saccharomyces cerevisiae, UniProt P41948).
T1 construct: untagged full-length Mep2 in pOO2, cRNA-injected Xenopus oocytes; family adopts a trimeric fold
It is filed as cell-based. The note with it: 3 mM ammonium; pH 5.5; labelled compound.

Substrate in series [2]: N
Briefly: cells, lysate or membranes. The note with it: -100 mV (voltage-dependent), pH 5.5, NH4Cl.

T1 sequence (P41948 whole entry): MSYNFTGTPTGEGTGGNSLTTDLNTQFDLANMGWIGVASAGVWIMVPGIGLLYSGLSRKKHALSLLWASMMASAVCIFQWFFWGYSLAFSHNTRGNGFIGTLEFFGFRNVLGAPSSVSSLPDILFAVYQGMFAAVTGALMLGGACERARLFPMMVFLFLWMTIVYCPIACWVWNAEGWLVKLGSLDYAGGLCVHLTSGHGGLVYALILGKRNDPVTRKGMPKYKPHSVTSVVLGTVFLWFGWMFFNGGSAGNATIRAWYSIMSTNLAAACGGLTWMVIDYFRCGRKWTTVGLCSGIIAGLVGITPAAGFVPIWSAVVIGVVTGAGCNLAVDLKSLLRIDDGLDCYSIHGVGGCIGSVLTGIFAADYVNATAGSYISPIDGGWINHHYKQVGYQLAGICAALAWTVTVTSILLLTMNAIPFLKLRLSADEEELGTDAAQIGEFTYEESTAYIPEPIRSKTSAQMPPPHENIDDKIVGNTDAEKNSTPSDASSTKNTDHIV

Consider `N` [ammonium], for which the “15N-ammonium uptake into Xenopus oocytes, isotope ratio mass spectrometry” value in series [1] was “Mep2 and its Mep2^S457D variant were functional in oocytes, enabling substrate transport”.

B1: Mep1 (ScMep1) (Saccharomyces cerevisiae S288C) (protein)
chain: MESRTTGPLTTETYDGPTVAFMILGAALVFFMVPGLGFLYSGLARRKSALALIWVVLMATLVGILQWYFWGYSLAFSKSAPNNKFIGNLDSFGFRNVYGKKFDEDAYPELAYATFQMMFSCVNLSIIAGATAERGRLLPHMVFLFILATIGYCPVTYWIWSPGGWAYQWGVLDWAGGGNIEILSAVSGFVYSWFLGKRNEKLLINFRPHNVSLVTLGTSILWFGWLLFNSASSLSPNLRSVYAFMNTCLSAITGGMTWCLLDYRSEKKWSTVGLCSGIISGLVAATPSSGCITLYGSLIQGIVAGVVCNFATKLKYYAKVDDAMDILAEHGVAGVIGLIFNALFGADWVIGMDGTTEHEGGWVTHNYKQMYKQIAYIAASIGYTAAVTAIICFVLGYIPGMRLRISEEAEEAGMDEDQIGEFAYDYVEVRRDYYLWGVDEDSQRSDVNHRVNNAHLAAERSSSGTNSSSDGNGEMIQSEKILPIHQEDPANR
In the case of B1, in series [2], the Km (as a rule, the concentration of substrate that gives half-maximal velocity) was 258 µM.

Values taken from article PMC7048316, “Yeast filamentation signaling is connected to a specific substrate translocation mechanism of the Mep2 transceptor” (PLoS Genetics, 2020).
